# From PMC11070402, “New antiproliferative 3-substituted oxindoles inhibiting EGFR/VEGFR-2 and tubulin polymerization” (Molecular Diversity, 2023)
# Several values for one entry are separate records, joined by “and”; a condition that tells them apart may be missing. Equal entries are not always repeated. Where two headings read alike, the source gives them in different places.
# Assays:
# [1] = tested on: Human Skin Fibroblasts (HSF) cells; experiment: Margin of safety: cytotoxicity on human skin fibroblasts (SRB assay); type: cell-based
# Method: Cell viability was assessed via SRB assay. Aliquots of 100 µl cell suspension (5 × 10^3 cells) were in 96-well plates and incubated in a complete media for 24 h. […] After 72 h of drug exposure, cells were fixed by replacing media with 150 µl of 10% TCA and incubated at 4 °C for 1 h. The TCA solution was removed, and the cells were washed 5 times with distilled water. Aliquots of […] SRB solution (0.4 w/v) were added and incubated in a dark place at room temperature for 10 min. Plates were washed 3 times with 1% acetic acid and allowed to air-dry overnight. Then, 150 µl of TRIS (10 mM) was added to dissolve the protein-bound SRB stain; the absorbance was measured at 540 nm using a BMG LAB TECH®-FLUO star Omega microplate reader (Ortenberg, Germany).
# [2] = tested on: MCF-7 (human breast cancer); experiment: Cytotoxicity versus MCF-7 cell line (MTT assay); conditions: MCF7, read-out: MCF-7 (IC50 ± SD, uM)
# tubulin [3] = experiment: Tubulin polymerization inhibition assay; type: biochemical
# tubulin [4] = tested on: tubulin; parameters: method as in PMID 33038796; conditions: read-out: tubulin polymerization IC50; cited from earlier work
# tubulin [5] = tested on: tubulin; parameters: method as in PMID 34832895; conditions: read-out: IC50 tubulin assembly; cited from earlier work
# [6] = tested on: 60 human cancer cell lines; experiment: NCI one-dose assay against sixty NCI cancer cell lines; type: cell-based
# Method: (§1) All novel scaffolds 6a–j were carefully selected by the National Cancer Institute (NCI), Bethesda, USA, to elucidate their cytotoxic activity versus 60 human cancer cell lines at 10 µM as a single-dose concentration after a 48 h incubation period.
# (§2) National Cancer Institution selected all the synthesized 6a–j (NCI), Bethesda, USA, for in vitro one-dose antitumor assay. The methodology protocol for the NCI anticancer screening was reported in detail elsewhere (http://www.dtp.nci.nih.gov). The anticancer assay was performed in full NCI 60 cell lines extracted from nine tumor cell lines, including leukemia, melanoma, lung, colon, CNS, ovarian, renal, prostate, and breast cancer cell lines.
# [7] = tested on: SNB-75 cells (CNS cancer cell line); experiment: NCI one-dose assay, SNB-75; type: cell-based; conditions: Homo sapiens; SNB-75 (CNS Cancer), 10 uM single dose; read-out: Growth inhibition %
# Method: as §1, §2
# [8] = tested on: NCI/ADR-RES (ovarian cancer cell line); experiment: NCI one-dose assay, NCI/ADR-RES; type: cell-based; conditions: Homo sapiens; NCI/ADR-RES; 10 µM single dose, 48 h incubation; read-out: cell growth inhibition % (GI %)
# Method: as §1, §2
# [9] = tested on: HOP-92 (non-small cell lung cancer cell line); experiment: NCI one-dose assay, HOP-92; type: cell-based; conditions: Homo sapiens; HOP-92 (Non-Small Cell Lung Cancer), 10 uM single dose; read-out: Growth inhibition %
# Method: as §1, §2
# UO-31 = experiment: NCI one-dose assay, UO-31; type: cell-based; conditions: Homo sapiens; UO-31 (Renal Cancer), 10 uM single dose; read-out: Growth inhibition %
# Method: as §1, §2
# K-562 = experiment: NCI one-dose assay, K-562; type: cell-based; conditions: Homo sapiens, K562; K-562 (Leukemia), 10 uM single dose; read-out: Growth inhibition %
# Method: as §1, §2
# MOLT-4 = experiment: NCI one-dose assay, MOLT-4; type: cell-based; conditions: Homo sapiens; MOLT-4 (Leukemia), 10 uM single dose; read-out: Growth inhibition %
# Method: as §1, §2
# SR = experiment: NCI one-dose assay, SR; type: cell-based; conditions: Homo sapiens; SR (Leukemia), 10 uM single dose; read-out: Growth inhibition %
# Method: as §1, §2
# SK-MEL-5 = experiment: NCI one-dose assay, SK-MEL-5; type: cell-based; conditions: Homo sapiens; SK-MEL-5 (Melanoma), 10 uM single dose; read-out: Growth inhibition %
# Method: as §1, §2
# MCF-7 = experiment: NCI one-dose assay, MCF-7; type: cell-based, human; conditions: Homo sapiens, MCF7, MCF7 (Breast Cancer), 10 uM single dose; read-out: Growth inhibition %
# Method: as §1, §2
# T-47D = experiment: NCI one-dose assay, T-47D; type: cell-based; conditions: Homo sapiens, T47D; T-47D (Breast Cancer), 10 uM single dose; read-out: Growth inhibition %
# Method: as §1, §2
# EGFR (T790M) = tested on: EGFR (T790M); parameters: method as in PMID 29758406; conditions: read-out: IC50 against EGFR (T790M); cited from earlier work
# EGFR (L858R) = tested on: EGFR (L858R); parameters: method as in PMID 29758406; conditions: read-out: IC50 against EGFR (L858R); cited from earlier work
# c-MET = tested on: c-MET; parameters: method as in PMID 29758406; conditions: read-out: IC50 against c-MET; cited from earlier work
# VEGFR-2 = conditions: cited from earlier work
# EGFR^L858R/T790M = tested on: EGFR^L858R/T790M; parameters: method as in PMID 34798457; conditions: cited from earlier work
# EGFR^WT kinase = target: EGFR^WT kinase; parameters: method as in PMID 34798457; conditions: cited from earlier work
# EGFR = target: T1, EGFR (Homo sapiens, UniProt P00533); parameters: method as in PMID 34832895; conditions: cited from earlier work
# T1 construct: purchased
# colchicine-binding site = target: colchicine-binding site; parameters: method as in PMID 34649064; conditions: read-out: competitive inhibition at the colchicine-binding site IC50; cited from earlier work
# tubulin [10] = tested on: tubulin; parameters: method as in doi:10.1016/j.molstruc.2022.132345; conditions: read-out: anti-tubulin activity IC50; cited from earlier work
# T1 sequence (P00533 25-1210): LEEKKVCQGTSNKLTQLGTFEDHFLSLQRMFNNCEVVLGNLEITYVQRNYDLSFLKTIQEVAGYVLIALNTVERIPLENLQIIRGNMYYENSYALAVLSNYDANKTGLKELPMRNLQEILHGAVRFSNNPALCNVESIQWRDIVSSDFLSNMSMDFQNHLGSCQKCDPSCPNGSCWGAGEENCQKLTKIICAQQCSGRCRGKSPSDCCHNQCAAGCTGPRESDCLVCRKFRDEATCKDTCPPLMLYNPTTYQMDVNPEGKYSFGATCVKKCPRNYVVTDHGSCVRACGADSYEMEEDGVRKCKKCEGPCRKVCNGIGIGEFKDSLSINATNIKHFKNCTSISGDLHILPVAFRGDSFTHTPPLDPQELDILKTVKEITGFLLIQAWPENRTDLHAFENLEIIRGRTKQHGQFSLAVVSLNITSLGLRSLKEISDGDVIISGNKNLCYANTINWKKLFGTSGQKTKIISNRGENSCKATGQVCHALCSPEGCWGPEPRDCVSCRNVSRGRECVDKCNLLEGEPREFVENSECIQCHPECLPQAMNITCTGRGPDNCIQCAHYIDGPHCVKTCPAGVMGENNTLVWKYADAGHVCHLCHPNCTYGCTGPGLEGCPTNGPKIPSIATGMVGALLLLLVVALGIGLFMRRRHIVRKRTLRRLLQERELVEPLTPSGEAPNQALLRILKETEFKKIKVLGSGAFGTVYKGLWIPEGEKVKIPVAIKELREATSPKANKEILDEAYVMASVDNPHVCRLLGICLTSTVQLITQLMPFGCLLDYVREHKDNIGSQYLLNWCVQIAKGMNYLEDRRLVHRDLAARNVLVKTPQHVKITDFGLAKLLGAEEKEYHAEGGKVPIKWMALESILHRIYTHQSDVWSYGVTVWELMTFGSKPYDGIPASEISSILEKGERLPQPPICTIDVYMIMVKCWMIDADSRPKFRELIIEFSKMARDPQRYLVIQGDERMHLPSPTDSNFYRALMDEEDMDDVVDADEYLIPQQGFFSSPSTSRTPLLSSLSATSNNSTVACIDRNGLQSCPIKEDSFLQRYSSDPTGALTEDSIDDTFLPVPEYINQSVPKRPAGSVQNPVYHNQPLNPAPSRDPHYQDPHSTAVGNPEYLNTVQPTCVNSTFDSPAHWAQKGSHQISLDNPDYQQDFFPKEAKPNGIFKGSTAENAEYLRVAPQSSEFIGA
compound,measurement,setting,value
"O=c1[nH]cc(F)c(=O)[nH]1 [5FU, 5-fluorouracil, reference compound]",IC50,"[1]; HSF, Human Skin Fibroblasts, SRB assay, 72 h exposure, read-out: HSF (IC50 ± SD)",5450 ± 20 nM
same,SI (selectivity index),[1]; SI = IC50 for HSF / IC50 for MCF-7 cells,2.70
same,IC50,[2],2.02 ± 0.17 µM
"COc1ccc(/C=C\c2cc(OC)c(OC)c(OC)c2)cc1O [CA-4, combretastatin A4]",%inh Tub,tubulin [3]; conc 0.1 (uM printed only in the CA-4 head),[…]
same,IC50,tubulin [4],2500 nM
"COc1ccc(C(=O)COc2ccc(C=C3C(=O)Nc4ccccc43)cc2)cc1 [Compound 6h, 3-{4-[2-(4-Methoxyphenyl)-2-oxoethoxy]benzylidene}indolin-2-one]",inhibition at 10 µM,"[6]; BT-549 (Breast Cancer), 10 uM single dose, read-out: Growth inhibition %",10.1%
same,inhibition at 10 µM,"[6]; CAKI-1 (Renal Cancer), 10 uM single dose, read-out: Growth inhibition %",26.4%
same,inhibition at 10 µM,"[6]; CCRF-CEM (Leukemia), 10 uM single dose, read-out: Growth inhibition %",14%
same,inhibition at 10 µM,"[6]; HCT-15 (Colon Cancer), 10 uM single dose, read-out: Growth inhibition %",15.2%
same,inhibition at 10 µM,"[6]; HCT-116 (Colon Cancer), 10 uM single dose, read-out: Growth inhibition %",25.4%
same,inhibition at 10 µM,"[6]; HL-60(TB) (Leukemia), 10 uM single dose, read-out: Growth inhibition %",20.8%
same,inhibition at 10 µM,"[6]; HS 578T (Breast Cancer), 10 uM single dose, read-out: Growth inhibition %",11.3%
same,inhibition at 10 µM,"[6]; IGROV-1, IGROV1 (Ovarian Cancer), 10 uM single dose, read-out: Growth inhibition %",23.7%
same,inhibition at 10 µM,"[6]; M14 (Melanoma), 10 uM single dose, read-out: Growth inhibition %",12.1%
same,inhibition at 10 µM,"[6]; MDA-MB-231, read-out: Growth inhibition %",10.8%
same,inhibition at 10 µM,"[6]; NCI-H226 (Non-Small Cell Lung Cancer), 10 uM single dose, read-out: Growth inhibition %",15.4%
same,inhibition at 10 µM,"[6]; NCI-H522 (Non-Small Cell Lung Cancer), 10 uM single dose, read-out: Growth inhibition %",17.2%
same,inhibition at 10 µM,"[6]; OVCAR-3 (Ovarian Cancer), 10 uM single dose, read-out: Growth inhibition %",18.3%
same,inhibition at 10 µM,"[6]; OVCAR-8 (Ovarian Cancer), 10 uM single dose, read-out: Growth inhibition %",15.9%
same,inhibition at 10 µM,"[6]; PC-3 (Prostate Cancer), 10 uM single dose, read-out: Growth inhibition %",36.1%
same,inhibition at 10 µM,"[6]; RPMI-8226 (Leukemia), 10 uM single dose, read-out: Growth inhibition %",25.4%
same,inhibition at 10 µM,"[6]; SF-539 (CNS Cancer), 10 uM single dose, read-out: Growth inhibition %",10.7%
same,inhibition at 10 µM,"[6]; SK-OV-3 (Ovarian Cancer), 10 uM single dose, read-out: Growth inhibition %",14.1%
same,inhibition at 10 µM,"[6]; UACC-62 (Melanoma), 10 uM single dose, read-out: Growth inhibition %",31.5%
same,inhibition at 10 µM,[7],23.6%
same,inhibition at 10 µM,[8],43.7%
same,inhibition at 10 µM,[9],11.7%
same,inhibition at 10 µM,UO-31,37.5%
same,inhibition at 10 µM,K-562,39.7%
same,inhibition at 10 µM,MOLT-4,34.3%
same,inhibition at 10 µM,SR,19.2%
same,inhibition at 10 µM,SK-MEL-5,17.8%
same,inhibition at 10 µM,MCF-7,41.3%
same,inhibition at 10 µM,T-47D,26.4%
same,melting point,,192 to 194 °C
CC(C)c1ccc(Cn2cc(-c3cc(-c4ccc(Br)cc4)nc(N)n3)c3ccccc32)cc1 [IV],IC50,EGFR (T790M),94 nM
same,IC50,EGFR (L858R),99 nM
same,IC50,c-MET,595 nM
c1nc(Nc2ccc(N3CCOCC3)cc2)cc(Nc2ccc3[nH]ccc3c2)n1 [VIII],IC50,VEGFR-2; read-out: IC50 against VEGFR-2,1200 nM
Cc1ccc(Nc2cc(Oc3ccc4[nH]ccc4c3)ncn2)cc1S(N)(=O)=O [VII],IC50,VEGFR-2; read-out: IC50 versus VEGFR-2,45 nM
C=CC(=O)Nc1cc(Nc2nccc(-c3cn(C)c4ccccc34)n2)c(OC)cc1-n1cccc1CN(C)C [V],IC50,EGFR^L858R/T790M,1.7 nM
same,selectivity versus EGFR^L858R/T790M over EGFR^WT kinase,EGFR^L858R/T790M,about 22 folds
same,IC50,EGFR^WT kinase,37 nM
COc1cc(OC)c(C=C2C(=O)Nc3cc(Cl)ccc32)c(OC)c1 [XIII],IC50,EGFR,549 nM
same,IC50,tubulin [5],1660 nM
Cc1cc(-c2cccc(-c3c[nH]c4ccccc34)n2)c2ccccc2n1 [XII],IC50,tubulin [4],5000 nM
COc1ccc2c(/C=C(\C)C(=O)c3cc(OC)c(OC)c([Se]C)c3)c[nH]c2c1 [XI],IC50,colchicine-binding site,1300 nM
COc1cc(NC(=O)/C(C#N)=C/c2c[nH]c3ccccc23)cc(OC)c1OC [X],IC50,tubulin [10],18000 nM
